# Source: patent US20240316073A1, “CANNABIDIOLIC ACID ESTERS FOR TREATING PRADER-WILLI SYNDROME” (EPM (IP), Inc., priority 2021, published 2024)
# Entries after “also recorded” stand apart in the source; their conditions may differ.
# Columns and labels:
# [1] = cited from earlier work
# [2] = system: Magel2^null mice; assay: Magel2-null mouse model of Prader-Willi Syndrome, HFD-induced obesity, CBDA-ME treatment; type: in vivo
# Excerpt: A Magel2-null mice model of Prader-Willi Syndrome was used to examine the effects of CBDA-ME treatment.
# (§1) The experimental protocol used was approved by the Institutional Animal Care and Use Committee of the Hebrew University, Israel, which is an AAALAC International accredited institute. Male 6-week-old Magel2^null mice and their wild-type littermate controls were maintained under a 12-h light/dark cycle and fed ad libitum. To generate diet-induced obesity, the mice were fed either a high-fat diet (HFD) (60% of calories from fat, 20% from protein, and 20% from carbohydrates; Research Diet, D12492) or a standard laboratory diet (STD, 14% fat, 24% protein, 62% carbohydrates; NIH-31 rodent diet) for 14-16 weeks. Then, HFD-fed obese mice received vehicle (1% Tween80, 4% DMSO, 95% Saline) or CBDA-ME (20 or 40 mg/kg) daily for 28 days by intraperitoneal (ip) injections. Age-matched control mice on STD received vehicle daily.
# (§2) Body weight was monitored daily. Total body fat and lean masses were determined by EchoMRI-100H™ (Echo Medical Systems LLC, Houston, TX, USA). At weeks 20-22, the mice were euthanized by a cervical dislocation under deep anesthesia. The brain, kidneys, liver, fat pads, pancreas and muscles were removed, and the liver and kidney were also weighed. The samples were either snap-frozen or fixed in buffered 4% formalin. Trunk blood was collected for determining the biochemical parameters.
# (§3) Multi-parameter metabolic assessment—Metabolic profile of the mice was assessed by using the Promethion High-Definition Behavioral Phenotyping System (Sable Instruments, Inc., Las Vegas, NV, USA). Data acquisition and instrument control were performed using MetaScreen software version 2.2.18.0, and the obtained raw data were processed using ExpeData version 1.8.4 using an analysis script detailing all aspects of data transformation. Mice with free access to food and water (which were continuously measured) were subjected to a standard 12 h light/12 h dark cycle, which consisted of a 24 h acclimation period followed by 24 h of sampling. Respiratory gases were measured by using the GA-3 gas analyzer (Sable Systems, Inc., Las Vegas, NV, USA) using a pull-mode, negative-pressure system. Air flow was measured and controlled by FR-8 (Sable Systems, Inc., Las Vegas, NV, USA), with a set flow rate of 2000 mL/min. Water vapor was continuously measured and its dilution effect on O2 and CO2 was mathematically compensated. Effective body mass was calculated by ANCOVA. Fat oxidation (FO) and carbohydrate oxidation (CHO) were calculated as FO=1.69×VO2−1.69×VCO2 and CHO=4.57×VCO2−3.23×VO2 and expressed as g/d/kg^eff.Mass. […]
# (§4) Statistical Methods—Results in multiple groups and time-dependent variables were compared by ANOVA followed by Tukey post-hoc test. Significance was set at P<0.05 using the following signs: *P<0.05 relative to STD-Veh; #P<0.05 relative to HFD-Veh; ^P<0.05 relative to HFD-20 mg/kg of CBDA-ME.
# (§5) The metabolic profile of CBDA-ME was examined in mice with diet-and genetic-induced obesity (DIO, GIO). Male Magel2^null mice and their wild-type littermate controls fed a high-fat diet (HFD) for 14-16 weeks became obese and then started treatment with daily ip injections of vehicle, or CBDA-ME (20 mg/kg/d or 40 mg/kg/d) for 28 days. Age-and sex-matched mice on STD served as controls.
# [3] = system: WT mice; assay: Wild-type littermate controls with HFD diet-induced obesity, CBDA-ME treatment; type: in vivo
# Excerpt: as §1, §2, §3
# Glucose tolerance test (ipGTT) and insulin tolerance test (ipITT)-Mice that fasted overnight were injected with glucose (1.5 g/kg, ip), followed by a tail blood collection at 0, 15, 30, 45, 60, 90, and 120 minutes. Blood glucose levels were determined using the Contour glucometer (Bayer, Pittsburgh, PA). The following day, mice underwent fasting for 6 h before receiving insulin (0.75 U/kg, ip; Eli Lilly), and blood glucose levels were determined at the same intervals as above. […]
# as §4, §5
# [4] = system: DIO mice; assay: Serum biochemistry and hepatic lipid content in HFD-fed obese mice, genotype not distinguished (WT or PWS model); type: in vivo
# Excerpt: as §1
# Blood biochemistry—Serum levels of cholesterol, triglycerides (TG), high-density lipoprotein (HDL), low-density lipoprotein (LDL), glucose, alanine aminotransferase (ALT), aspartate aminotransferase (AST), and alkaline phosphatase (ALP) were determined using the Cobas C-111 chemistry analyzer (Roche, Switzerland). Fasting blood glucose was measured using the Contour glucometer.
# Hepatic lipid content—Liver tissues were extracted and their triglyceride and cholesterol contents were determined using the Cobas C-111 chemistry analyzer (Roche, Switzerland) or the EnzyChrom™ Triglyceride assay kit (BioAssay Systems, Hayward CA, USA).
# Histopathology—First, 5 μm paraffin-embedded liver sections from 5 animals per group were stained with hematoxylin-eosin staining. Liver images were captured with a Zeiss AxioCam ICc5 color camera (Carl Zeiss AG, Jena, Germany) mounted on a Zeiss Axio Scope.A1 light microscope (Carl Zeiss AG, Jena, Germany) and taken from 10 random 40× fields of each animal.
# as §4
# [5] = system: Magel2^null mice; assay: PWS preventive model: Magel2-null mice on standard diet treated for 18 weeks; type: in vivo; conditions: STD diet, 20 mg/kg/day IP
# Method: The aim of the second study was to evaluate whether EPM301 treatment has an impact on body weight gain and adiposity in a mouse model of PWS.
# Male 6-week-old Magel2^null mice and their wild-type littermate controls were maintained under a 12-h light/dark cycle and fed ad libitum a standard laboratory diet (STD, 14% fat, 24% protein, 62% carbohydrates; NIH-31 rodent diet).
# Magel2^null mice were either treated with EPM301 20 mg/kg/day or with vehicle (1% Tween80, 4% DMSO, 95% Saline). WT siblings were treated with vehicle. All treatments were given for 18 weeks by intraperitoneal (IP) injections.
# [6] = system: rats; conditions: compared with CBDA, 5-HT1A receptor-dependent; cited from earlier work
# [7] = system: rats; conditions: compared with CBDA, 5-HT1A receptor-dependent; cited from earlier work; remark: listed apart in the source
# [8] = system: rat models; conditions: oral ingestion, 1 mg/kg, two rat models; cited from earlier work
# [9] = HFD-fed obese, 20 or 40 mg/kg/d ip, 28 days
# [10] = 20 or 40 mg/kg ip, 28 days, more prominent at the higher dose
smiles,measurement,setting,value
"C=C(C)[C@@H]1CCC(C)=C[C@H]1c1c(O)cc(CCCCC)c(C(=O)O)c1O [CBDA, cannabidiolic acid]",stability (decarboxylation into CBD enhanced by heat),[1],relative instability
"C=C(C)C1CCC(C)=C[C@H]1c1c(O)cc(CCCCC)c(C(=O)OC)c1O (some centres unmarked) [CBDA-ME, cannabidiolic acid methyl ester]",food intake and hyperphagia,[2]; HFD,inhibit; also recorded: significantly reduced
same,reduced ambulatory activity,[2]; HFD,restored
same,increased adiposity,[2]; [9],reduced by CBDA-ME in both doses
same,overweight (body weight),[2]; [9],reduced by CBDA-ME in both doses; also recorded: significantly reduced; also recorded: effectively reduced
same,insulin sensitivity (ipITT),"[2]; HFD, 40 mg/kg",slightly improved
same,obesity-induced glucose intolerance (ipGTT),"[2]; HFD, 20 or 40 mg/kg",found effective in Magel2^null mice in both doses tested
same,fasting blood glucose levels,"[2]; HFD, chronic treatment",reduced
same,carbohydrate oxidation,"[2]; HFD, indirect calorimetry",downregulating
same,fat oxidation,"[2]; HFD, indirect calorimetry",further upregulating
same,food intake and hyperphagia,[3]; HFD,not observed
same,reduced ambulatory activity,[3]; HFD,restored
same,increased adiposity,[3]; [9],only observed in the higher dose of 40 mg/kg
same,overweight (body weight),[3]; [9],only observed in the higher dose of 40 mg/kg; also recorded: only the higher dose was found effective
same,insulin sensitivity (ipITT),"[3]; HFD, 40 mg/kg",slightly improved
same,obesity-induced glucose intolerance (ipGTT),"[3]; HFD, 40 mg/kg",this effect was observed
same,lean body mass percentage,"[3]; HFD, 40 mg/kg ip, 28 days",significant increase
same,fasting blood glucose levels,"[3]; HFD, chronic treatment",only in Magel2^null mice
same,carbohydrate oxidation,"[3]; HFD, indirect calorimetry",upregulated
same,utilization of fat (fat oxidation),"[3]; HFD, indirect calorimetry",downregulated
same,parameters measured overall,"[3]; WT DIO mice, 40 mg/kg",improvements in almost all parameters measured
same,obesity related hepatocellular injury: serum ALT,[4]; 40 mg/kg,reduction
same,obesity related hepatocellular injury: serum AST,[4]; 40 mg/kg,reduction
same,serum HDL,"[4]; 20 or 40 mg/kg ip, 28 days",no effect
same,HFD-induced hypercholesterolemia (serum cholesterol),[4]; [10],reduced
same,ratio between HDL-to-LDL,[4]; [10],increased
same,serum LDL,[4]; [10],reduced
same,ALP levels,[4]; HFD,No major changes
same,"HFD-induced hepatic steatosis (hepatic triglyceride and cholesterol levels, fat vacuoles in the liver)",[4]; HFD,attenuated
same,change in the body weight versus WT controls and vehicle-treated Magel2^null mice,[5],significantly lower
same,fat mass versus WT control mice,[5],similar
same,lean mass versus WT control mice,[5],similar
same,fat mass versus vehicle-treated Magel2^null mice,"[5]; listed as EPM301, 20 mg/kg/day",lower fat mass; also recorded: prevented
same,lean mass versus vehicle-treated Magel2^null mice,"[5]; listed as EPM301, 20 mg/kg/day",significantly higher; also recorded: increased lean mass
same,weight gain versus vehicle-treated Magel2^null mice,"[5]; listed as EPM301, 20 mg/kg/day",lower; also recorded: prevented weight gain
same,suppressing signs of acute and anticipatory nausea,[6],greater potency than CBDA
same,suppressing signs of stress-induced anxiety,[7],greater potency than CBDA
same,anti-depressant effect,[8],potent anti-depressant effect
